Measurements published in patent US12527329B2, “Compositions and methods relating to insecticides” (priority 2019, dated 2026).
Read-outs that look alike come from different tables or passages of the source.

Experiments:
[1] = system: ethoxycoumarin de-ethylase (cytochrome P450 mono-oxygenase); assay: Ethoxycoumarin de-ethylase activity assay on homogenates of topically treated mosquitoes; type: biochemical, Aedes aegypti; settings: 0.2 μL of 5% (w/v) topically, 4 hr before homogenization; ANOVA with Tukey's posttest, P<0.05 (FIG. 9)
Procedure: Ethoxycoumarin de-ethylase activity was measured according the methods of Anderson and Zhu (2004) with minor modifications. In short, mosquitoes were treated with 0.2 μL of fir needle oil or delta-carene 5% w/v solution in ethanol and incubated for 4 hr prior to sacrificing treated insects. Approximately 100 insects were homogenized in 0.1 PBS solution, and homogenates centrifuged at 10,000×g for 20 minutes at 4° C. The resulting supernatant containing microsomes was then used as the enzyme preparation for the remainder of the assay. In each well, 20 μL of enzyme preparation was added to a final volume of 100 μL 0.1 PBS containing 250 μM reduced β-NADPH and 2 mM ethoxycoumarin. After adding the enzyme solution to the wells, plates were incubated at room temperature for 3 hr. After 3 hr incubation, 10 μL of 3.2 mM of oxidized glutathione was added to each well and 1 U of yeast glutathione reductase was added to each well. […] Fluorescence values were then read at 390/465 nm excitation/[…].

Aedes aegypti mosquitoes = type: in vivo
Procedure: This plant essential oil has been screened in combination with natural pyrethrins to assess the ability of this oil and these compositions to increase mortality and knockdown at 24-hr and 1-hr, respectively. […] As described herein, all compounds were dissolved and applied topically in ethanol or acetone.
An example of such synergism can be seen in FIG. 4. FIG. 4 is a graph showing synergism of insecticide (natural pyrethrins, NPs), piperonyl butoxide (PBO), and the combination thereof on mortality (24 hour) of Aedes aegypti mosquitoes. Mosquitoes were treated topically with 0.2 μL of different concentrations of insecticide+1% or 5% (w/v) piperonyl butoxide (PBO) in acetone. Mortality was recorded 24 hr after treatment.
Another example of such synergism is shown in FIG. 5, which is a graph showing antagonism of (natural pyrethrins, NPs), PBO, and the combination on knockdown (1 hour) of Aedes aegypti mosquitoes. Mosquitoes were treated with 0.2 μL different concentrations of insecticide+1% or 5% (w/v) PBO oil in acetone. Mortality was recorded 24 hr after exposure. FIG. 6 is an annotated version of FIG. 5 with arrows denoting statistically significant reduction in knockdown effect.
FIG. 7 is a graph showing synergism of (natural pyrethrins, NPs), fir needle oil, and the combination thereof on knockdown (1 hour) and mortality (24 hour) of Aedes aegypti mosquitoes. Mosquitoes were treated with 0.2 μL of different concentrations of insecticide+1% or 5% (w/v) fir needle oil in acetone. Mortality was recorded 24 hr after exposure.
(§1) Aedes aegypti mosquitoes (susceptible Orlando strain and pyrethroid resistant Puerto Rico strain) were reared using standard protocols and provided by the United States Department of Agriculture—Center of Medical, Agricultural, and Veterinary Entomology (Gainesville, FL). Adult mosquitoes were anesthetized on ice, and the females treated with 0.2 μL of ethanolic solution using a repeating micro-applicator (Hamilton Co., Reno, NV). Ten females were used per concentration and taken from at least three different emerged cohorts. Knockdown (defined as inability to fly or orient in the upright direction) was recorded at 1 hr or other time points post application (depending on the experiment), whereas mortality (defined as no movement—ataxia) was recorded at 24 hr. […] Synergism studies were performed using the maximal sublethal dose of the fir needle oil in combination with varying concentrations of insecticide to calculate the LD50 value of the insecticide in combination with the natural synergist. SAS 9.4 software was used to calculate the LD50 values using a PROC PROBIT model with Abbott's correction to account for any control mortality. Synergist ratios were calculated as: KD50 or LD50 of compound alone÷KD50 or LD50 of compound+Fir needle oil.

[2] = system: pyrethroid-susceptible strain of Aedes aegypti (Orlando); type: in vivo; settings: topical; for KD50: 1-hr; for LD50: 24-hr
Procedure: as §1

[3] = system: pyrethroid-resistant Aedes aegypti strain (Puerto Rico); assay: Topical application on the pyrethroid-resistant Puerto Rico strain: 24-hr LD50 and 1-hr KD50; type: in vivo; set-up: unit not given beside the values; settings: alone or with FNO 5%
Procedure: as §1

[4] = 1-hr knockdown, topical, insecticide with or without 1% fir needle oil, ng dose per mg insect body weight

CC1=CCC2C(C1)C2(C)C (stereo not shown) [delta-carene, delta-3-carene]
ethoxycoumarin de-ethylase (cytochrome P450 mono-oxygenase) activity versus vehicle-treated mosquitoes [1]: not increasing P450 activity

CC1(C)[C@H](C(=O)O[C@H](C#N)c2cccc(Oc3ccccc3)c2)[C@@H]1C=C(Br)Br [Deltamethrin, (S)-α-cyano-3-phenoxybenzyl (1R)-cis-3-(2,2-dibromovinyl)-2,2-dimethylcyclopropanecarboxylate]
KD50 (Aedes aegypti mosquitoes; [4]): 0.003 ng/mg

N#Cc1nn(-c2c(Cl)cc(C(F)(F)F)cc2Cl)c(N)c1[S+]([O-])C(F)(F)F (stereo not shown) [Fipronil]
KD50 ([2]; alone or with FNO 5%): 10.7 ng/mg | LD50 ([2]; alone or with FNO 5%): 0.1 ng/mg

CC1(C)C(C=C(Cl)Cl)C1C(=O)OCc1cccc(Oc2ccccc2)c1 (racemic) [Permethrin, 3-phenoxybenzyl (1RS)-cis,trans-3-(2,2-dichlorovinyl)-2,2-dimethylcyclopropanecarboxylate]
KD50 ([2]; alone or with FNO 5%): 0.06 ng/mg | LD50 ([2]; alone or with FNO 5%): 0.09 ng/mg | KD50 (Aedes aegypti mosquitoes; in vivo): 0.06 ng/mg | LD50 (Aedes aegypti mosquitoes; in vivo): 0.09 ng/mg

O=[N+]([O-])N=C1NCCN1Cc1ccc(Cl)nc1 [Imidacloprid, 1-(6-chloro-3-pyridylmethyl)-N-nitroimidazolidin-2-ylideneamine]
KD50 ([2]; alone or with FNO 5%): 3.7 ng/mg | LD50 ([2]; alone or with FNO 5%): 1.1 ng/mg | KD50 [3]: 10.7

CN1COCN(Cc2cnc(Cl)s2)C1=N[N+](=O)[O-] [Thiamethoxam, 3-((2-chloro-5-thiazolyl)methyl)-5-methyl-4-nitroiminotetrahydro-1,3,5-oxadiazine]
KD50 ([2]; alone or with FNO 5%): 17.2 ng/mg | LD50 ([2]; alone or with FNO 5%): 3.4 ng/mg

CNC(=N[N+](=O)[O-])NCc1cnc(Cl)s1 [Clothianidin, 1-(2-Chloro-1,3-thiazol-5-ylmethyl)-3-methyl-2-nitroguanidine]
KD50 ([2]; alone or with FNO 5%): 22 ng/mg | KD50 ([2]; clothianidin alone or with 5% w/v FNO, delta-3-carene or bornyl acetate (Table 3)): 22 | LD50 ([2]; alone or with FNO 5%): 4.5 ng/mg | KD50 [3]: 9.15 | KD50 (Aedes aegypti mosquitoes; [4]): 22 ng/mg | LD50 (Aedes aegypti mosquitoes; 24-hr lethal dose, topical, insecticide with or without 1% fir needle oil, ng dose per mg insect body weight): 4.5 ng/mg
